In patent US11426347B2, “Food for improving intraintestinal environment” (AJINOMOTO CO., INC., priority 2017, dated 2022):

Tests used:
Type in all cases: cell-based
[1] = system: bifidobacteria; experiment: Experimental Example 1-1: addition of amino acid and fructo-oligosaccharide to human feces suspension, anaerobic culture, quantitative PCR of bifidobacteria; settings: amino acid added together with 0.5% FOS, compared with FOS alone, human feces suspension in PBS, 37° C., 4 days
Description: The PBS solutions for the Examples and Comparative Examples shown in Table 1-1 were prepared and used as media for a feces culture. PBS alone was used as a control. Fructo-oligosaccharide (FOS) manufactured by Wako Pure Chemical Industries, Ltd. (#064-02385) was used.
(§1) Thereafter, 10 ml of each solution was dispensed into glass vials and the glass vials were sterilized by autoclave, made anaerobic, and sealed with a butyl rubber stopper. The feces suspension was prepared by collecting about 10 g of feces from 3 healthy individuals (one man and two women) in their 20 s to 40 s and suspending same in 80 ml of anaerobic PBS. The feces suspension was added to each vial by 0.5 ml, placed in an incubator at 37° C., and anaerobically cultured for 4 days with tumble blending once per day. After completion of the culture, an intestinal bacterial pellet was obtained from the entire amount of the culture medium by centrifugation (8,000×g, 5 min). DNA was extracted from this pellet using ISOFECAL for BeadsBeat (manufactured by NIPPON GENE CO., LTD.), and quantitative PCR was performed using GeneAce SYBR qPCR Mix α (manufactured by NIPPON GENE CO., LTD.). Quantitative PCR was performed under the conditions of 45 cycles of 95° C. for 30 sec and 60° C. for 60 sec after 95° C. for 10 min. Primers for quantitative PCR used for detection bifidobacteria are as follows.
(§2) Using the results obtained by quantitative PCR, the relative amount when the control is 1 was calculated, and the results were normalized with z-score.

[2] = system: bifidobacteria; experiment: Experimental Example 2: addition test of amino acid and galacto-oligosaccharide to human feces suspension; settings: amino acid added together with 0.5% GOS, compared with GOS alone; human feces suspension in PBS, 4 days; quantitative PCR
Description: as §1
The PBS solutions for the Examples and Comparative Examples shown in Table 2 were prepared and used as media for feces culture. […]
as §2

[3] = system: bifidobacteria; experiment: Experimental Example 1-2: addition test of amino acid and fructo-oligosaccharide to human feces suspension; settings: amino acid added together with 0.5% FOS, compared with FOS alone; human feces suspension in PBS, 4 days; quantitative PCR
Description: as §1
The PBS solutions for the Examples and Comparative Examples shown in Table 1-2 were prepared and used as media for a feces culture. […]
as §2

C[C@H](N)C(=O)O [Ala, L-alanine]
proliferation of bifidobacteria [1]: greater proliferation of bifidobacteria than that with FOS alone

NC(=O)CC[C@H](N)C(=O)O [Gln, L-glutamine]
proliferation of bifidobacteria [1]: greater proliferation of bifidobacteria than that with FOS alone

N[C@@H](CCC(=O)O)C(=O)O [Glu, L-glutamic acid]
proliferation of bifidobacteria [2]: greater proliferation of bifidobacteria than that with GOS alone
proliferation of bifidobacteria [1]: greater proliferation of bifidobacteria than that with FOS alone

N[C@@H](Cc1c[nH]cn1)C(=O)O [His, L-histidine]
proliferation of bifidobacteria [3]: greater proliferation of bifidobacteria than that with FOS alone

CC[C@H](C)[C@H](N)C(=O)O [Ile, L-isoleucine]
proliferation of bifidobacteria [1]: greater proliferation of bifidobacteria than that with FOS alone

NCCCC[C@H](N)C(=O)O [Lys, L-lysine]
proliferation of bifidobacteria [2]: greater proliferation of bifidobacteria than that with GOS alone
proliferation of bifidobacteria [1]: greater proliferation of bifidobacteria than that with FOS alone

O=C(O)[C@@H]1CCCN1 [Pro, L-proline]
proliferation of bifidobacteria [3]: greater proliferation of bifidobacteria than that with FOS alone

CC(C)[C@H](N)C(=O)O [Val, L-valine]
proliferation of bifidobacteria [1]: greater proliferation of bifidobacteria than that with FOS alone
